The values that follow come from article PMC3075238 (Bioorganic & medicinal chemistry letters, 2011).

The experiment has as its target T1, caspase-3 in HeLa cell (Homo sapiens, UniProt P42574).
T1 sequence (P42574 29-175 limits assumed): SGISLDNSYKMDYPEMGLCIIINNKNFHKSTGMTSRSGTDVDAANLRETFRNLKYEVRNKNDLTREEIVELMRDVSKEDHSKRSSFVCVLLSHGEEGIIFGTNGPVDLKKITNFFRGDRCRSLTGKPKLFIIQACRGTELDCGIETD
T1 sequence (P42574 176-277 limits assumed): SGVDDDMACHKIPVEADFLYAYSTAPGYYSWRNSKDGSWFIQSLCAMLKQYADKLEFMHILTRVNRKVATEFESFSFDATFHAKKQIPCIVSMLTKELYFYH
As to the kind of experiment: Apo-One Homogeneous Caspase-3/7 whole cell assay in HeLa cells.

As to `O=C1C(=O)N(Cc2cn(CCF)nn2)c2ccc(S(=O)(=O)N3CCC[C@H]3COc3ccc(F)cc3F)cc21` [Compound 51], the “inhibition potency for caspase-3 in the whole cell assay (in words)” value is on record as “very good inhibition potency”.
